Source: patent US20250325675A1, “APTAMER, CONJUGATE, COMPOSITION, METHOD FOR PREPARING SAME, AND USE THEREOF” (priority 2022, published 2025)
{Cy5} = cyanine 5 fluorescent dye

Tests used:
U251 human glioma cells = test: High content imaging: entry of conjugates into U251 cells; format: cell-based; settings: 100 nM, 30 min 37°C
Description: (§1) In this experiment, the entry of conjugate AP1 provided by the present disclosure and comparative conjugate comparative AP10 into different cells was observed by a PerkinElmer High Content Imaging system (Operatta).
(§2) U118MG glioma cells, SVGp12 normal astrocytes, T98G human brain glioma cells, U251 human glioma cells, A549 human non-small cell lung cancer cells, MCF-7 human breast cancer cells, and 293T human kidney epithelial cells were all purchased from the Shanghai Cell Bank of Chinese Academy of Sciences. […] The supernatant was aspirated and DPBS buffer (purchased from Thermo Fisher) was added to wash the plate 2 times (100 μL each time).
(§3) Conjugate AP1 prepared above and yeast tRNA were respectively formulated into conjugate solution 2A with DMEM medium, and the conjugate solution 2A comprised yeast tRNA at a final concentration of 100 μg/mL and conjugate AP1 at a final concentration of 100 nM. […]
(§4) Normalization was performed according to the mean fluorescence intensity of control group 2Y, that is, subtracting the mean fluorescence intensity of control group 2Y from the fluorescence intensity of test group 2X before performing imaging.

[1] = system: MCF-7 human breast cancer cells; test: High content imaging: entry of conjugates into MCF-7 cells; format: cell-based; settings: 100 nM, 30 min 37°C
Description: as §1, §2, §3, §4

[2] = system: U118MG glioma tumor spheres; test: High content imaging: entry into U118MG tumor spheres; format: cell-based, human; settings: 100 nM, imaging without washing
Description: In this experiment, the entry of conjugate AP1 provided by the present disclosure and comparative conjugate comparative AP10 into U118MG glioma tumor spheres and A549 human non-small cell lung cancer tumor spheres was observed by a PerkinElmer High Content Imaging system (Operatta).
80 μL fresh, sterilized and unsolidified 2% agarose was added into the culture wells of a 96-well plate. […] Half of the supernatant was aspirated every 48 h and fresh DMEM medium was added along the wall of the culture wells. After 7 days of culture, the cells were observed under the microscope to confirm that complete cell spheres were obtained, indicating successful tumor sphere cultivation.
Each culture well was added with AP1 or comparative AP10 according to the method of experimental Example 2, and imaged in a high content imaging system, with the only difference of directly performing imaging after culture without washing and performing imaging according to the measured fluorescence intensity of Cy5.

[3] = system: A549 human non-small cell lung cancer cells; test: High content imaging: entry of conjugates into A549 cells; format: cell-based; settings: 100 nM, 30 min 37°C
Description: as §1, §2, §3, §4

U118MG glioma cells = test: High content imaging: entry of conjugates into U118MG glioma cells; format: cell-based, human; settings: 100 nM, 30 min 37°C, normalized to control group 2Y
Description: as §1, §2, §3, §4

CY5-CfUfGGAGUfUfCfAGACfGUfGUfUfGCfUfCfUfUfCfCfGAUfCfUfCf (CUGGAGUUCAGACGUGUUGCUCUUCCGAUCUC; 2'-fluoro at CU, RNA at AG, 5' {Cy5}, backbone not given here) [AP1]
strong Cy5 fluorescence signal: Cy5 fluorescence signal in cells (U251 human glioma cells) | Cy5 fluorescence signal in cells [1] | Cy5 fluorescence signal in tumor spheres [2] | Cy5 fluorescence signal in cells [3] | Cy5 fluorescence signal in cells (U118MG glioma cells)
